Laboratory results as given in US20080221132A1, “Multi-Functional Small Molecules as Anti-Proliferative Agents” (priority 2006, published 2008).
Where two headings read alike, the source gives them in different places.

Tests used:
[1] = tested on: Lung_H1703; experiment: Cell proliferation assay (ATPlite), H1703; assay type: cell-based; settings: Homo sapiens, NCI-H1703; TABLE C; 72 hours, 0.5% fetal bovine serum, ATP content; read-out: IC50 grading, Lung_H1703
Procedure: (§1) A representative number of compounds were assayed against several different cell lines using the cell proliferation assay:
(§2) Cell Proliferation Assay:
(§3) Cancer cell lines were plated at 5,000 to 10,000 per well in 96-well flatted bottomed plates with various concentration of compounds. The cells were incubated with compounds for 72 hours in the presence of 0.5% of fetal bovine serum. Growth inhibition was accessed by adenosine triphosphate (ATP) content assay using Perkin Elmer ATPlite kit. ATPlite is an ATP monitoring system based on firefly luciferase. Briefly, 25 μl of mammalian cell lysis solution was added to 50 μl of phenol red-free culture medium per well to lyse the cells and stabilize the ATP. 25 μl of substrate solution was then added to the well and subsequently the luminescence was measured.

[2] = tested on: Lung_H1975; experiment: Cell proliferation assay (ATPlite), H1975; assay type: cell-based; settings: Homo sapiens, NCI-H1975; TABLE C; 72 hours, 0.5% fetal bovine serum, ATP content; read-out: IC50 grading, Lung_H1975
Procedure: as §1, §2, §3

[3] = tested on: Lung_H2122; experiment: Cell proliferation assay (ATPlite), H2122; assay type: cell-based; settings: Homo sapiens, NCI-H2122; TABLE C; 72 hours, 0.5% fetal bovine serum, ATP content; read-out: IC50 grading, Lung_H2122
Procedure: as §1, §2, §3

[4] = tested on: Lung_H358; experiment: Cell proliferation assay (ATPlite), H358; assay type: cell-based; settings: Homo sapiens, NCI-H358; TABLE C; 72 hours, 0.5% fetal bovine serum, ATP content; read-out: IC50 grading, Lung_H358
Procedure: as §1, §2, §3

[5] = tested on: Lung_H460; experiment: Cell proliferation assay (ATPlite), H460; assay type: cell-based; settings: Homo sapiens, NCI-H460; TABLE C; 72 hours, 0.5% fetal bovine serum, ATP content; read-out: IC50 grading, Lung_H460
Procedure: as §1, §2, §3

[6] = tested on: Pancreas_BxPC3; experiment: Cell proliferation assay (ATPlite), BxPC3; assay type: cell-based; settings: Homo sapiens, BXPC-3; TABLE C; 72 hours, 0.5% fetal bovine serum, ATP content; read-out: IC50 grading, Pancreas_BxPC3
Procedure: as §1, §2, §3

[7] = tested on: Pancreas_Capan1; experiment: Cell proliferation assay (ATPlite), Capan1; assay type: cell-based; settings: Homo sapiens, CAPAN-1; TABLE C; 72 hours, 0.5% fetal bovine serum, ATP content; read-out: IC50 grading, Pancreas_Capan1
Procedure: as §1, §2, §3

[8] = tested on: Prostate_PC3 (PC-3, prostate adenocarcinoma); experiment: Cell proliferation assay (ATPlite), PC3; assay type: cell-based
Procedure: as §1, §2
as §3, with “The cells were incubated with compounds for 72 hours in the presence of 0.5% of fetal bovine serum.” left out

[9] = tested on: Lung_HCC827; experiment: Cell proliferation assay (ATPlite), HCC827; assay type: cell-based; settings: Homo sapiens, TABLE C, 72 hours, 0.5% fetal bovine serum, ATP content, read-out: IC50 grading, Lung_HCC827
Procedure: as §1, §2, §3

[10] = biological target: C-Raf (Homo sapiens, UniProt P04049, Y340D/Y341D); experiment: Raf kinase assay (Upstate kit, MEK-1 substrate, dot blot), C-Raf; assay type: biochemical; settings: TABLE 6-B (Section 6 compounds)
Procedure: The Raf kinase assay was performed by following the protocol of Raf kinase assay kit (B-Raf, Upstate, catalog#17-359; C-Raf, Upstate, catalog#17-360) with modifications. Briefly, assay buffer, ATP, substrate and Raf kinase were mixed in a 96 well assay plate. The final kinase assay mixture contained 20 mM MOPS, pH7.2, 25 mM β-glycerol phosphate, 5 mM EGTA, 1 mM sodium orthovanadate, 1 mM DTT, 250 μM ATP and 37.5 mM magnesium chloride, 0.1 μg/well of Raf kinase, and 1 μg/well of MEK-1 substrate protein. Assay samples were incubated for 30 min at room temperature. The kinase reaction was stopped by adding EDTA, pH8 to a final concentration of 25 mM. A 10 μl of the reaction sample was spotted onto nitrocellulose filter and dot blot was performed by adding 1 μg/ml of anti-phospho-MEK-1 antibody in the blocking solution (Licor Bioscience, catalogue #927-40000). The nitrocellulose filter was subsequently incubated with secondary IRDye 800CW goat anti-rabbit antibody (Licor Bioscience, catalogue #926-32211) before reading the signal on an Odyssey imager (Licor Bioscience).

[11] = tested on: ER mRNA expression in human ER-negative breast cancer cell lines; settings: Yang et al. Cancer Res., 2001; cited from earlier work
[12] = tested on: Breast_MCF7 (MCF-7, breast adenocarcinoma); experiment: Cell proliferation assay (ATPlite), MCF7; assay type: cell-based; settings: Homo sapiens, TABLE D, Breast adenocarcinoma, read-out: IC50 grading, MCF-7
Procedure: as §1, §2
as §3, with “The cells were incubated with compounds for 72 hours in the presence of 0.5% of fetal bovine serum.” left out

[13] = tested on: Breast_MDAMB468 (MDA-MB-468, breast adenocarcinoma); experiment: Cell proliferation assay (ATPlite), MDA-MB-468; assay type: cell-based; settings: Homo sapiens, TABLE D, Breast adenocarcinoma, read-out: IC50 grading, MDA-MB-468
Procedure: as §1, §2
as §3, with “The cells were incubated with compounds for 72 hours in the presence of 0.5% of fetal bovine serum.” left out

[14] = tested on: Breast_SkBr3 (SKBr3, breast carcinoma); experiment: Cell proliferation assay (ATPlite), SkBr3; assay type: cell-based; settings: Homo sapiens, SK-BR-3; TABLE D; Breast carcinoma; read-out: IC50 grading, SKBr3
Procedure: as §1, §2
as §3, with “The cells were incubated with compounds for 72 hours in the presence of 0.5% of fetal bovine serum.” left out

[15] = tested on: Colon_HCT116 (HCT116, colon cancer); experiment: Cell proliferation assay (ATPlite), HCT116; assay type: cell-based; settings: Homo sapiens, HCT-116; TABLE D; Colon cancer; read-out: IC50 grading, HCT116
Procedure: as §1, §2
as §3, with “The cells were incubated with compounds for 72 hours in the presence of 0.5% of fetal bovine serum.” left out

[16] = tested on: Epidermoid_A431 (A431, epidermoid carcinoma); experiment: Cell proliferation assay (ATPlite), A431; assay type: cell-based; settings: Homo sapiens, A-431; TABLE D; Epidermoid carcinoma; read-out: IC50 grading, A431
Procedure: as §1, §2
as §3, with “The cells were incubated with compounds for 72 hours in the presence of 0.5% of fetal bovine serum.” left out

[17] = tested on: Prostate_22RV1 (22RV1, prostate carcinoma); experiment: Cell proliferation assay (ATPlite), 22RV1; assay type: cell-based; settings: Homo sapiens, TABLE D, Prostate carcinoma, read-out: IC50 grading, 22RV1
Procedure: as §1, §2
as §3, with “The cells were incubated with compounds for 72 hours in the presence of 0.5% of fetal bovine serum.” left out

[18] = tested on: MDA-MB-231 (breast adenocarcinoma); experiment: Cell proliferation assay (ATPlite), MDA-MB-231; assay type: cell-based; settings: Homo sapiens, TABLE D, read-out: IC50 grading, MDA-MB-231
Procedure: as §1, §2
as §3, with “The cells were incubated with compounds for 72 hours in the presence of 0.5% of fetal bovine serum.” left out

[19] = tested on: Caki-1 (renal carcinoma); experiment: Cell proliferation assay (ATPlite), Caki-1; assay type: cell-based; settings: Homo sapiens, TABLE D, read-out: IC50 grading, Caki-1
Procedure: as §1, §2
as §3, with “The cells were incubated with compounds for 72 hours in the presence of 0.5% of fetal bovine serum.” left out

[20] = tested on: HCT-116 (colon) and SKBr3 (breast) cancer cells; experiment: Induction of apoptosis, Caspase 3&7 activity (FIG. 4); assay type: cell-based; settings: concentration <20 μM
[21] = tested on: A549 NSCLC xenograft; experiment: A549 NSCLC Xenograft Model; assay type: in vivo; settings: FIG. 11A, 11B

Sequence of C-Raf (P04049 whole entry Y340D/Y341D): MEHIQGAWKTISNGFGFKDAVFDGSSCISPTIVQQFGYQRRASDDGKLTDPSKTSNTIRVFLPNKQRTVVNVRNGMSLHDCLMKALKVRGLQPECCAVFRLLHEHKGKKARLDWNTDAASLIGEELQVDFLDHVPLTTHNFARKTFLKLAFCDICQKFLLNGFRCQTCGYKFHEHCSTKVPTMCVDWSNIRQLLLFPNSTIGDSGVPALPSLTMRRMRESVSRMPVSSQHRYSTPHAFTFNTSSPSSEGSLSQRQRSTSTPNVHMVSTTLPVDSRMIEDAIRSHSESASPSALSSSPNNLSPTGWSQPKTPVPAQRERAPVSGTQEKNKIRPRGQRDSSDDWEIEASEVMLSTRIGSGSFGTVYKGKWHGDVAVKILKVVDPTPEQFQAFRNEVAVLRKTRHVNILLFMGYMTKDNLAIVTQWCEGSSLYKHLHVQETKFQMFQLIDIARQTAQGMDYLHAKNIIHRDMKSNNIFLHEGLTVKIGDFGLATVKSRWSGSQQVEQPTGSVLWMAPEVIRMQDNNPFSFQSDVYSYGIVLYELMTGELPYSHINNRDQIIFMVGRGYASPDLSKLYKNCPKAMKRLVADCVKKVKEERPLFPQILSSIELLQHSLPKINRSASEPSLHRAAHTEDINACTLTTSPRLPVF

Row | SMILES | IC50 [1] [µM] | IC50 [2] [µM] | IC50 [3] [µM] | IC50 [4] [µM] | IC50 [5] [µM] | IC50 [6] [µM] | IC50 [7] [µM] | IC50 [10] [µM] | further results
1 | COc1cc2ncnc(Nc3ccc(F)c(Cl)c3)c2cc1OCCCCCCC(=O)NO [Compound 6] | 0.1 to 1 | 0.1 to 1 | 0.1 to 1 | 0.1 to 1 | 0.1 to 1 | 0.1 to 1 | 1 to 10 |  | IC50 ([8]; TABLE C, 72 hours, 0.5% fetal bovine serum, ATP content, read-out: IC50 grading, Prostate_PC3): 0.1 to 1 µM
2 | C#Cc1cccc(Nc2ncnc3cc(OC)c(NC(=O)CCCCCCC(=O)NO)cc23)c1 [Compound 44] | 1 to 10 | 1 to 10 | 1 to 10 | 1 to 10 | 1 to 10 | 1 to 10 | 1 to 10 |  | IC50 [9]: 0.1 to 1 µM
3 | O=C(CCCCCCC(=O)Nc1cc(Oc2ccc(NC(=O)Nc3ccc(Cl)c(C(F)(F)F)c3)cc2)ccn1)NO [Compound 12] |  |  |  |  |  |  |  | < 0.1 | 
4 | CC(/C=C/C(=O)NO)=C\[C@@H](C)C(=O)c1ccc(N(C)C)cc1 [TSA, trichostatin A] |  |  |  |  |  |  |  |  | fold increase in ER mRNA expression [11]: 5 fold
5 | O=C(CCCCCNC(=O)c1cc(Oc2ccc(NC(=O)Nc3ccc(Cl)c(C(F)(F)F)c3)cc2)ccn1)NO [Compound 5] |  |  |  |  |  |  |  | 1 to 10 | 
6 | C#Cc1cccc(Nc2ncnc3cc(OCCOC)c(OCCOC)cc23)c1 [Erlotinib, reference compound] |  |  |  |  |  |  |  |  | IC50 [12]: ≥ 5 µM; IC50 [13]: 0.5 to 5 µM; IC50 [14]: ≥ 5 µM; IC50 [15]: ≥ 5 µM; IC50 [16]: 0.5 to 5 µM; IC50 [17]: 0.05 to 0.5 µM; IC50 ([8]; TABLE D, Prostate adenocarcinoma, read-out: IC50 grading, PC-3): ≥ 5 µM; IC50 [18]: ≥ 5 µM; IC50 [19]: 0.05 to 0.5 µM; induction of apoptosis (Caspase 3&7 activity) [20]: inactive; effect on tumor growth / tumor size [21]: did not significantly affect tumor size
